Experimental data as given in ChEMBL document CHEMBL1177777, “Novel pyridobenzimidazole derivatives exhibiting antifungal activity by the inhibition of beta-1,6-glucan synthesis” (2010).
In brackets after ≈: the same amount, converted by molar mass. Activity calls are given as the source filed them. No cut-off for these calls is given here.

Key:
[1] = test system: Candida albicans; assay: Antifungal activity against Candida albicans ATCC 24433 after 24 hrs by microdilution method; assay type: functional; settings: ATCC 24433, 24 h
[2] = test system: Nakaseomyces glabratus; assay: Antifungal activity against Candida glabrata IFO 0622 after 24 hrs by microdilution method; assay type: functional; settings: IFO 0622, 24 h
[3] = test system: Pichia kudriavzevii; assay: Antifungal activity against Candida krusei TIMM 0269 after 24 hrs by microdilution method; assay type: functional; settings: TIMM 0269, 24 h
[4] = test system: Candida tropicalis; assay: Antifungal activity against Candida tropicalis TIMM 0313 after 24 hrs by microdilution method; assay type: functional; settings: TIMM 0313, 24 h
[5] = test system: Aspergillus fumigatus; assay: Antifungal activity against Aspergillus fumigatus ATCC 36607 after 24 hrs by microdilution method; assay type: functional; settings: ATCC 36607, 24 h
[6] = test system: Candida albicans; assay: Antifungal activity against Candida albicans ATCC 24433 assessed as inhibition of beta-1,6-glucan synthesis; assay type: functional, organism-based
[7] = test system: Nakaseomyces glabratus; assay: Antifungal activity against Candida glabrata IFO 0622 assessed as inhibition of beta-1,6-glucan synthesis; assay type: functional, organism-based
[8] = test system: Pichia kudriavzevii; assay: Antifungal activity against Candida krusei TIMM 0269 assessed as inhibition of beta-1,6-glucan synthesis; assay type: functional, organism-based
[9] = test system: Candida tropicalis; assay: Antifungal activity against Candida tropicalis TIMM 0313 assessed as inhibition of beta-1,6-glucan synthesis; assay type: functional, organism-based
[10] = test system: Aspergillus fumigatus; assay: Antifungal activity against Aspergillus fumigatus ATCC 36607 assessed as inhibition of beta-1,6-glucan synthesis; assay type: functional, organism-based

Compound	MIC [1] [µg/mL]	MIC [2] [µg/mL]	MIC [3] [µg/mL]	MIC [4] [µg/mL]	MIC [5] [µg/mL]	inhibition [6]	inhibition [7]	inhibition [8]	inhibition [9]	inhibition [10]
Cc1c(-c2ccccc2)c(N2CC[C@H](N(C)C)C2)n2c(nc3ccccc32)c1C#N	> 128	≤ 0.125	≤ 0.125	0.5 (≈ 1.26 µM)	> 128	Active	Active	Active	Active	Active
CCCNc1c(CC)c(C)c(C#N)c2nc3ccccc3n12	> 128	> 128	> 128	> 128	> 128	–	–	–	–	–
CCc1c(C)c(C#N)c2nc3ccccc3n2c1NCCCN(C)C	> 128	> 128	> 128	> 128	> 128	–	–	–	–	–
CCc1c(C)c(C#N)c2nc3ccccc3n2c1NCCN	> 128	4 (≈ 13.6 µM)	32 (≈ 109 µM)	> 128	> 128	–	–	–	–	–
Cc1c(F)c(N2CC[C@H](N(C)C)C2)n2c(nc3ccccc32)c1C#N	> 128	4 (≈ 11.9 µM)	16 (≈ 47.4 µM)	> 128	> 128	–	–	–	–	–
Cc1cc(N2CC[C@H](N(C)C)C2)n2c(nc3ccccc32)c1C#N	> 128	8 (≈ 25 µM)	32 (≈ 100 µM)	> 128	> 128	–	–	–	–	–
CCc1c(C)c(C#N)c2nc3ccccc3n2c1N1CCCC1	> 64	> 64	> 64	> 64	> 64	–	–	–	–	–
CCc1c(C)c(C(N)=O)c2nc3ccccc3n2c1NCCN(C)CC	> 128	> 128	> 128	> 128	> 128	–	–	–	–	–
OC(Cn1cncn1)(Cn1cncn1)c1ccc(F)cc1F [FLUCONAZOLE]	0.25 (≈ 0.816 µM)	2 (≈ 6.53 µM)	16 (≈ 52.2 µM)	0.25 (≈ 0.816 µM)	> 64	–	–	–	–	–
CCc1c(C)c(C#N)c2nc3ccccc3n2c1N1CC[C@@H](N(C)C)C1	> 128	1 (≈ 2.88 µM)	16 (≈ 46 µM)	64 (≈ 184 µM)	> 128	–	–	–	–	–
CCc1c(-c2ccccc2)c(C#N)c2nc3ccccc3n2c1N1CC[C@H](N(C)C)C1	> 128	> 128	> 128	> 128	> 128	–	–	–	–	–
CCc1c(C)c(C#N)c2nc3ccccc3n2c1N1CCN(C)CC1	> 32	> 32	> 32	> 32	> 32	–	–	–	–	–
CCc1c(C)c(C#N)c2nc3ccccc3n2c1NCCN(CC)CC	> 128	1 (≈ 2.86 µM)	4 (≈ 11.4 µM)	> 128	> 128	–	–	–	–	–
Cc1c(CCO)c(N2CC[C@H](N(C)C)C2)n2c(nc3ccccc32)c1C#N	> 128	32 (≈ 88 µM)	16 (≈ 44 µM)	> 128	> 128	–	–	–	–	–
CCc1c(C)c(C#N)c2nc3ccccc3n2c1N1CC[C@H](N(C)C)C1	> 128	0.5 (≈ 1.44 µM)	2 (≈ 5.76 µM)	32 (≈ 92.1 µM)	> 128	–	–	–	–	–
CCc1c(C)c(C#N)c2nc3ccccc3n2c1N1CCC(N(C)C)CC1	> 128	> 128	> 128	> 128	> 128	–	–	–	–	–
CN(C)[C@H]1CCN(c2c(-c3ccccc3)cc(C#N)c3nc4ccccc4n23)C1	> 128	≤ 0.125	2 (≈ 5.24 µM)	8 (≈ 21 µM)	> 128	–	–	–	–	–
CC(=O)OCCc1c(C)c(C#N)c2nc3ccccc3n2c1N1CC[C@H](N(C)C)C1	> 128	1 (≈ 2.47 µM)	4 (≈ 9.86 µM)	16 (≈ 39.5 µM)	> 128	–	–	–	–	–
CCCCc1c(C)c(C#N)c2nc3ccccc3n2c1N1CC[C@H](N(C)C)C1	> 128	≤ 0.125	0.5 (≈ 1.33 µM)	0.5 (≈ 1.33 µM)	> 128	–	–	–	–	–
